Earlier results as cited in patent US20180263953A1, “Sustained Release Cannabinoid Formulations” (CannTab Therapeutics, Limited, priority 2016, published 2018).

Columns and labels:
[1] = low solubility and unknown permeability; NICHD/FDA Oral Formulations Platform Report 1
[2] = after administration

CCCCCc1cc(O)c2c(c1)OC(C)(C)[C@@H]1CCC(C)=C[C@@H]21 [Dronabinol, (−)-trans-Δ^9-tetrahydrocannabinol]
BCS class [1]: class 2 or class 4
duration of appetite stimulant effect [2]: ≥ 24 h
